Experimental data published in patent publication EP1484329A1, “Indole derivatives with apoptosis inducing activity” (Zentaris GmbH, priority 2003, dated 2004).
Values after ≈ are worked out from the molar mass of the structure shown. Where two headings read alike, the source gives them in different places.

Assays:
HT29 = assay: XTT proliferation assay, HT29; format: cell-based, human; details: Homo sapiens, read-out: XTT Proliferationsassay, EC50 HT29
Description: (§1) Die Substanzen 1,2, 4-6 wurden in einem Proliferationstest an etablierten Tumorzelllinien auf ihre anti-proliferative Aktivität hin untersucht (D.A. Scuderio et al. Cancer Res. 1988, 48, 4827-4833). Der verwendete Test bestimmt die zelluläre Dehydrogenase-Aktivität und ermöglicht eine Bestimmung der Zellvitalität und indirekt der Zellzahl. Bei den verwendeten Zelllinien handelt es sich um die humane Cervixkarzinom Zelllinie KB/HeLa (ATCC CCL17), die ovariale Adenokarzinomzelllinie SKOV-3 (ATCC HTB77), die humane Glioblastom Zelllinie SF-268 (NCI 503138) und die Lungenkarzinom Zelllinie NCI-H460 (NCI 503473). Des weiteren wurde zur Untersuchung der Zellzyklus-spezifischen Wirkung der Substanz ein RKOp27 Zellsystem verwendet (M. Schmidt et al. Oncogene19(20):2423-9, 2000). Bei RKO handelt es sich um eine humane Kolonkarzinomlinie, in der der Zellzyklusinhibitor p27 ^kip1 mittels des Ecdyson Expressionssystems induziert zur Expression gebracht und zu einem Zellzyklusarrest spezifisch in G2 geführt werden kann. Eine unspezifisch wirkende Substanz hemmt die Proliferation unabhängig davon, ob die RKO Zelle in G1 oder G2 arretiert ist oder nicht. Zellzyklus-spezifische Substanzen wie beispielsweise Tubulininhibitoren sind hingegen nur dann zytotoxisch, wenn Zellen nicht arretiert sind und der Zellzyklus durchlaufen wird. In Tabelle 1 ist die zytotoxische bzw. wachstumshemmende Aktivität der beschriebenen Verbindungen mit / ohne Expression von p27^kip1gezeigt. Die getesteten Verbindungen zeigten im induzierten Zustand von p27^kiP1 keine zytotoxische Aktivität. Die Ergebnisse zeigen eine sehr potente Hemmung der Proliferation ausgewählter Tumorzelllinien durch die genannten Substanzen. Tabelle 1:
(§2) Zur weiteren Charakterisierung wurden die Substanzen 1-6 an einem Panel von 7 humanen Tumorzelllinien auf ihre anti-proliferative Wirkung hin untersucht. Bei den untersuchten Zelllinien handelt es sich um die humanen Glioma Zelllinien A172 (ATCC CRL-1620) und U118 (ATCC HTB-15), die humane Lungenkarzinom Zelllinie A549, das humane epidermoide Karzinom A431 (ATCC CRL-2592), die humanen Prostatakarzinom Zelllinien DU145 (ATCC HTB-81) und PC3 (ATCC CRL-1435) und die humane Kolon Adenokarzinomzelllinie HT29 (ATCC HTB-38). Es handelt sich hierbei um sehr gut charakterisierte, etablierte Zelllinien, die von ATCC, ECACC bzw. NCI erhalten und in Kultur genommen wurden. Die in Tab. […]

DNA-Topoisomerase II = DNA-Topoisomerase II (Homo sapiens, UniProt P11388); assay: kDNA decatenation assay for topoisomerase II activity; format: biochemical; details: tested at 100, 31.6 and 10 µM
DNA-Topoisomerase II, sequence (P11388 whole entry): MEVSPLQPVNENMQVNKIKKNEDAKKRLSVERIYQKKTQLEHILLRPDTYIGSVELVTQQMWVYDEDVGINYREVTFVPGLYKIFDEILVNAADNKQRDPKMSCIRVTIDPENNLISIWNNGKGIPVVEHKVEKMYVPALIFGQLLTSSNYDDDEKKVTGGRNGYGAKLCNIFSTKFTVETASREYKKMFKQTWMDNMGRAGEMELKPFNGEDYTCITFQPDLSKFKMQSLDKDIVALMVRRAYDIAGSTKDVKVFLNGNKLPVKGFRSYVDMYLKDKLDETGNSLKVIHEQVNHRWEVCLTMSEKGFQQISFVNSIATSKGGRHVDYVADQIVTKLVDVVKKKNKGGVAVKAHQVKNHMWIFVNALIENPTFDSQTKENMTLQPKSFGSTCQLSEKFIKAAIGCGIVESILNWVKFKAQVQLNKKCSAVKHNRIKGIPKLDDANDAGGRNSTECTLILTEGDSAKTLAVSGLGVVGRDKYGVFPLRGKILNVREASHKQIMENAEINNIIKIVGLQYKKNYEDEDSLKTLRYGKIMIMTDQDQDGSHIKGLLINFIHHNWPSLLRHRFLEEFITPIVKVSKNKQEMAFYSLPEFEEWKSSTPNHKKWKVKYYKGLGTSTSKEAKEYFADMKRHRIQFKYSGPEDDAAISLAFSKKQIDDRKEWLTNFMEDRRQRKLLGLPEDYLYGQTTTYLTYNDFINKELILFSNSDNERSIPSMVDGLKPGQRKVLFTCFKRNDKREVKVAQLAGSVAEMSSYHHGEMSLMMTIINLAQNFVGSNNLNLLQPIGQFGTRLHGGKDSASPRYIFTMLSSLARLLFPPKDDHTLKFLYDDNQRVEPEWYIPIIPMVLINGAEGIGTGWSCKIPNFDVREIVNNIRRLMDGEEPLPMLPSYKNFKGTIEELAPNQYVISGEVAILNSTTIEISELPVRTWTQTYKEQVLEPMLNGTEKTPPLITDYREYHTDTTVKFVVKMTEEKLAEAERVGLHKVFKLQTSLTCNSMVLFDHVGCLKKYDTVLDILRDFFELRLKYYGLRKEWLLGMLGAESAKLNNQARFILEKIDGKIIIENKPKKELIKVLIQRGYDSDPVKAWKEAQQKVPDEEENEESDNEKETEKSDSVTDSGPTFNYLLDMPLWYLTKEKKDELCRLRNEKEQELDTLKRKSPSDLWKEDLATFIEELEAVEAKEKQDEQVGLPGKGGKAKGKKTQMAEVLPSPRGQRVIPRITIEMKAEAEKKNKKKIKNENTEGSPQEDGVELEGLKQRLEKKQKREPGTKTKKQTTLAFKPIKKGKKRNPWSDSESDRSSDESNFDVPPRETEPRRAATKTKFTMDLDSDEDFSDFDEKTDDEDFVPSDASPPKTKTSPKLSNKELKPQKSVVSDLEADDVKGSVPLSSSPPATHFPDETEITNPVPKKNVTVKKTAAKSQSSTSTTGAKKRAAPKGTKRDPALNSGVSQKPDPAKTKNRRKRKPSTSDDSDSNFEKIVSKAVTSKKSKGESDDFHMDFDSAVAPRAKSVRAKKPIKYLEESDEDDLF
Method: In diesem von P. Arimondo (Anti-Cancer Drug Design 2000, 15 (6), 413-421) beschriebenen Assay wird kDNA mit humaner DNA-Topoisomerase II in Abwesenheit oder Gegenwart der Testverbindungen behandelt. Die Testung der erfindungsgemäßen Verbindungen 2, 4 und 5 erfolgte hierbei bei drei unterschiedlichen Konzentrationen (100, 31.6 und 10 µM). Zum Vergleich setzte man eine Positivkontrolle und die Referenzverbindungen m-Amsacrin (m-Amsa), Paclitaxel und Vincristine bei einer jeweiligen Konzentration von 100µM ein.
Zu 1µL vorgelegter Testsubstanz (20fach konzentriert in 100% DMSO) werden 2µL 10x Assay Puffer, 1µL kDNA (200ng), 0.5µL human Topoisomerase II (1 unit) und 15,5µL H2O pipettiert und gemischt.
Die Reaktionsansätze werden in den auf 37°C vorgeheizten Heizblock gestellt und 10min bei 37°C inkubiert. Die Inkubation wird nach Zugabe von 4µL 5x Stop Puffer gestoppt und nachfolgend die Substanz mit CIA extrahiert. Danach werden 20µL des Überstandes auf ein 1 % Agarosegel mit 0,25µg/mL Ethidiumbromid aufgetragen und 1h bei 100V aufgetrennt. Zum Schluss wird das Gel unter UV-Anregung fotografiert (s. Graph 1). Die Quantifizierung der Inhibierung der Decatenation von kDNA erfolgt mit der GeIPro® Analyzer Software (s. Graph 2) [formula] [formula]

U118MG = assay: XTT proliferation assay, U118MG; format: cell-based; details: Homo sapiens, U-118-MG; read-out: XTT Proliferationsassay, EC50 U118MG
Description: as §1, §2

A549 = assay: XTT proliferation assay, A549; format: cell-based, human; details: Homo sapiens, read-out: XTT Proliferationsassay, EC50 A549
Description: as §1, §2

DU145 = assay: XTT proliferation assay, DU145; format: cell-based, human; details: Homo sapiens, read-out: XTT Proliferationsassay, EC50 DU145
Description: as §1, §2

P388ADR = assay: XTT proliferation assay, P388ADR (doxorubicin-resistant); format: cell-based, murine
Description: as §1
Zur weiteren Charakterisierung wurden die Substanzen 1,2,4-6 gegenüber multi drug resistenten Zelllinien im Vergleich zu den nicht-resistenten Wildtypzelllinien untersucht.
Bei den untersuchten Zelllinien handelt es sich um die murine L1210, die akute myeloische Leukaemie Zelllinie LT12 und um die resistenten Linien L1210/mdr und LT12/mdr. Außerdem wurden die murine P388 Zelllinie (methyl-cholanthreneinduced lymphoid neoplasm) sowie die Doxorubicin-resistente P388 als Testsysteme herangezogen.

Rindertubulin = assay: Inhibition of tubulin polymerisation in vitro; format: biochemical, Rind; details: Tubulin with 30% MAPs; mean of two independent experiments
Description: In diesem Test wird durch Zyklen von Polymerisation und Depolymerisation aufgereinigtes Tubulin eingesetzt, welches durch Zugabe von GTP und Erwärmung zur Polymerisation gebracht wird. […]

RKOp27 = assay: XTT proliferation assay, RKOp27 cell system with / without induced p27kip1 expression; format: cell-based; details: Homo sapiens
Description: as §1, with “Substanzen.” for “Substanzen. Tabelle 1:”

[1] = Mus musculus, P388/ADR; read-out: XTT Proliferationsassay, EC50 P388ADR
[2] = RKOP27, without expression of p27kip1, read-out: XTT Proliferationsassay, EC50 RKOP27
[3] = RKOP27 ind., p27kip1 expression induced (cells arrested), read-out: XTT Proliferationsassay, EC50 RKOP27 ind.

SMILES	EC50 (HT29; HT-29, HT29)	Hemmung der Topoisomerase II (kDNA Assay) (DNA-Topoisomerase II)	EC50 (U118MG)	EC50 (A549; A549, A549)	EC50 (DU145; DU-145, DU145)	EC50 (P388ADR; [1])	Hemmung der Tubulin-Polymerisation, EC50 (Rindertubulin)	EC50 (RKOp27; [2])	EC50 (RKOp27; [3])	EC50 (HT29; HT-29)	EC50 (A549; A549)	EC50 (DU145; DU-145)	EC50 (P388ADR; Mus musculus, P388/ADR, read-out: XTT Proliferationsassay, EC50 P388ADR)
O=C(Nc1cnc2nccnc2c1)C(=O)c1cn(Cc2ccc(Cl)cc2)c2ccccc12 [Verbindung 5, 2-[1-(4-Chlor-benzyl)-1H-indol-3-yl]-2-oxo-N-pyrido[2,3-b]pyrazin-7-yl-acetamid]	0.07 µg/mL (≈ 0.158 µM)	Inhibierung der Topoisomerase II	0.013 µg/mL (≈ 0.0294 µM)	0.017 µg/mL (≈ 0.0385 µM)	0.035 µg/mL (≈ 0.0792 µM)	0.019 µg/mL (≈ 0.043 µM)	0.71 µg/mL	0.065 µg/mL (≈ 0.147 µM)	> 3.16 µg/mL				
O=C(Nc1ccc2ncccc2c1)C(=S)c1cn(Cc2ccc(Cl)cc2)c2ccccc12 [Verbindung 4, 2-[1-(4-Chlorbenzyl)-1 H-indol-3-yl]-N-chinolin-6-yl-2-thioxoacetamid]	0.04 µg/mL (≈ 0.0877 µM)	signifikante Hemmung der Topoisomerase II	0.03 µg/mL (≈ 0.0658 µM)	0.041 µg/mL (≈ 0.0899 µM)	0.045 µg/mL (≈ 0.0987 µM)	0.051 µg/mL (≈ 0.112 µM)	0.97 µg/mL	0.053 µg/mL (≈ 0.116 µM)	> 3.16 µg/mL				
O=C(Nc1ccc2ncccc2c1)C(=O)c1cn(Cc2ccc(Cl)cc2)c2ccccc12 [Verbindung 2, 2-[1-(4-Chlor-benzyl)-1 H-indol-3-yl]-2-oxo-N-chinolin-6-yl-acetamid]		signifikante Hemmung der Topoisomerase II	0.022 µg/mL (≈ 0.05 µM)				1.23 µg/mL	0.047 µg/mL (≈ 0.107 µM)	> 3.16 µg/mL	0.027 µg/mL (≈ 0.0614 µM)	0.05 µg/mL (≈ 0.114 µM)	0.047 µg/mL (≈ 0.107 µM)	0.056 µg/mL (≈ 0.127 µM)
